Source: US11213032B2, “Insecticidal compounds” (SYNGENTA PARTICIPATIONS AG, priority 2017, dated 2022)

Assays:
Type in all cases: in vivo
[1] = test system: Diabrotica balteata (Corn Root Worm); assay: Diabrotica balteata (corn root worm) on maize sprouts, spray; conditions: 96 h, L2 larvae, 4 days after infestation, read-out: effect in at least one of the two categories (mortality or growth inhibition)
Description: Diabrotica balteata (Corn Root Worm)
Maize sprouts placed onto an agar layer in 24-well microtiter plates were treated with aqueous test solutions prepared from 10,000 ppm DMSO stock solutions by spraying. After drying, the plates were infested with L2 larvae (6 to 10 per well). The samples were assessed for mortality and growth inhibition in comparison to untreated samples 4 days after infestation.

[2] = test system: Euschistus heros (Neotropical Brown Stink Bug); assay: Euschistus heros (neotropical brown stink bug) on soybean leaves, spray; conditions: 120 h, N2 nymphs, 5 days after infestation, read-out: effect in at least one of the two categories (mortality or growth inhibition)
Description: Euschistus heros (Neotropical Brown Stink Bug)
Soybean leaves on agar in 24-well microtiter plates were sprayed with aqueous test solutions prepared from 10,000 ppm DMSO stock solutions. After drying the leaves were infested with N2 nymphs. The samples were assessed for mortality and growth inhibition in comparison to untreated samples 5 days after infestation.

[3] = test system: Myzus persicae (Green Peach Aphid); assay: Myzus persicae (green peach aphid) feeding/contact activity; conditions: 144 h, mixed ages, 6 days after infestation
Description: Myzus persicae (Green Peach Aphid): Feeding/Contact Activity
(§1) Sunflower leaf discs were placed onto agar in a 24-well microtiter plate and sprayed with aqueous test solutions prepared from 10,000 ppm DMSO stock solutions. After drying, the leaf discs were infested with an aphid population of mixed ages. The samples were assessed for mortality 6 days after infestation.

[4] = test system: Plutella xylostella (Diamond Back Moth); assay: Plutella xylostella (diamond back moth) feeding/contact activity; conditions: 120 h, L2 larvae, artificial diet, 5 days after infestation
Description: Plutella xylostella (Diamond Back Moth): Feeding/Contact Activity
24-well microtiter plates with artificial diet were treated with aqueous test solutions prepared from 10,000 ppm DMSO stock solutions by pipetting. After drying, the plates were infested with L2 larvae (10 to 15 per well). The samples were assessed for mortality 5 days after infestation.

[5] = test system: Spodoptera littoralis (Egyptian Cotton Leaf Worm); assay: Spodoptera littoralis (Egyptian cotton leaf worm) on cotton leaf discs; conditions: foliar, 72 h, L1 larvae, 3 days after infestation
Description: Spodoptera littoralis (Egyptian Cotton Leaf Worm)
Cotton leaf discs were placed onto agar in 24-well microtiter plates and sprayed with aqueous test solutions prepared from 10,000 ppm DMSO stock solutions. After drying the leaf discs were infested with five L1 larvae. The samples were assessed for mortality, anti-feeding effect, and growth inhibition in comparison to untreated samples 3 days after infestation. Control of Spodoptera littoralis by a test sample is given when at least one of the categories mortality, anti-feedant effect, and growth inhibition is higher than the untreated sample.

[6] = test system: Tetranychus urticae (Two-Spotted Spider Mite); assay: whole plant or invertebrate; conditions: 192 h
Description: Tetranychus urticae (Two-Spotted Spider Mite): Feeding/Contact Activity
Bean leaf discs on agar in 24-well microtiter plates were sprayed with aqueous test solutions prepared from 10,000 ppm DMSO stock solutions. After drying the leaf discs were infested with a mite population of mixed ages. The samples were assessed for mortality on mixed population (mobile stages) 8 days after infestation.

[7] = test system: Thrips tabaci (Onion thrips); assay: Thrips tabaci (onion thrips) feeding/contact activity; conditions: 144 h, mixed ages, 6 days after infestation
Description: Thrips tabaci (Onion thrips) Feeding/Contact Activity
as §1, with “on” for “onto”, “in” for “in a”, “plates” for “plate”, “drying” for “drying,”, “a thrips” for “an aphid”

CCOC1=NOC(NC(=O)c2ccc(C3=NS[C@](c4cc(Cl)cc(Cl)c4)(C(F)(F)F)C3)cc2C)C1 (stereo partly drawn) [Compound A01, 4-[(5R)-5-(3,5-dichlorophenyl)-5-(trifluoromethyl)-4H-isothiazol-3-yl]-N-(3-ethoxy-4,5-dihydroisoxazol-5-yl)-2-methyl-benzamide]
≥ 80%: percent effect (mortality or growth inhibition) at 200 ppm [1] | percent effect (mortality or growth inhibition) at 200 ppm [2] | mortality at 200 ppm [3] | mortality at 200 ppm [4] | percent control (mortality, anti-feedant effect or growth inhibition) at 200 ppm [5] | mortality at 200 ppm [6] | mortality at 200 ppm [7]

CCOC1=NOC(NC(=O)c2ccc(N3CCC(c4cc(Cl)cc(Cl)c4)(C(F)(F)F)C3)cc2C)C1 (stereo not shown) [Compound A02, 4-[3-(3,5-dichlorophenyl)-3-(trifluoromethyl)pyrrolidin-1-yl]-N-(3-ethoxy-4,5-dihydroisoxazol-5-yl)-2-methyl-benzamide]
≥ 80%: percent effect (mortality or growth inhibition) at 200 ppm [1] | percent effect (mortality or growth inhibition) at 200 ppm [2] | mortality at 200 ppm [4] | percent control (mortality, anti-feedant effect or growth inhibition) at 200 ppm [5] | mortality at 200 ppm [6] | mortality at 200 ppm [7]
